Article PMC9254247, “Dual-sensitive antibacterial peptide nanoparticles prevent dental caries” (Theranostics, 2022)
No end group written: not given here.

Experiments:
normal gastric organoids = type: cell-based, human; settings: 1 day
From the text: (§1) Toxicity tests on human organoid s. Organoids have been established in our lab.
(§2) Ethical approval of the study and the written consent/permission forms were obtained from Institutional Review Board (IRB) at Hunan N ormal University before the study commencement. For each patient, written permission form was reviewed and signed by themselves. According to the literature14,15, briefly, the tissue samples obtained from patients were removed excess fat or muscle tissues and cut into small fragments.
(§3) The fragments were washed thoroughly, then digested and centrifuged to obtain cell pellet. The resulting pellet was resuspended in ice-cold 70 % BME for incubating 15 min and then the organoid medium was added. The composition of oral and gastric organoid medium was as follows: […]
(§4) Human gastric organoid medium contains Advanced Dulbecco’s Modified Eagle’s […]
GlutaMAX,1×B27 supplement (Life Technologies), 50 ng/mL human EGF […]
(§5) 50- AGGGTATCTAATCCT-30) and the final amplicon was quantified using a Qubit dsDNA assay kit (Life Technologies, California, United States). […]
(§6) The operational taxonomic units (OTUs) were generated using Vsearch software with a 97% similarity cutoff. The QIIME package and the RDP classifier (confidence threshold was 70%) were performed to select the representative read of each OTU and annotate and BLAST against the Silva database Version 123, respectively. […]

[1] = system: normal oral and gastric organoids; type: cell-based, human
From the text: as §1, §2, §3, §5, §6

[2] = system: S. mutans UA159 infection of teeth; assay: In vivo rodent model simulating severe childhood caries; set-up: species or system Sprague-Dawley rat pups; settings: for body weights vs control: after 35 days of topical treatment, 100 μM; for H&E staining of gingival, palatal and gastric tissues: caries study, Figure S12
From the text: For each patient, written permission form was reviewed and signed. […]
In vivo rodent model simulating severe childhood caries. All the animal studies were approved by the Institutional Animal Care and Use Committee (IACUC) of Hunan Normal University, and the National Institutes of Health guidelines for the performance of animal experiments were followed. 15 days -old female Sprague– Dawley rat pups were purchased with their dams from Slac & Jingda Corporation of laboratory animals, Changsha, China. All animals should be checked for the pathogen […]
infections especially for the S.mutans by plating oral swabs on mitis salivarius agar plus bacitracin. The animals were then infected by mouth with S. mutans UA159 (mid-logarithmic) 4 times (once a day) by pipetting 0.1 mL of a cell suspension containing 2 × 10^8 colony-forming units into their mouths. When the infection was confirmed, all the pups were randomly placed into three treatment groups, and their teeth were treated topically once a day for a total 35 days using the swabs plus modified syringe. The concentration of CHX and pHly -1 NPs was 100 μM and the volume was 300 μ L. The three treatment groups were: (1) control (PBS, pH 4.5); (2) CHX (100 μ M, dissolve in PBS, pH 4.5); (3) pHly -1 NPs (100 μM, dissolve in PBS, pH 4.5). Each group was provided the National Institutes of Health cariogenic diet 2000 and water containing 5% sucrose. After 35 days of treatment, all animals were sacrificed and jaws were collected according the literature . Determination of caries score of the jaws was performed by a calibrated examiner who was blind for the study by using codified samples according to Lar son’s modification of Keyes’ system 11 -13. […]
The fragments were washed thoroughly, then digested and centrifuged to obtain cell pellet. The resulting pellet was resuspended in ice-cold 70 % BME for incubating 15 min and then the organoid medium was added. The composition of oral and gastric organoid medium was as follows:
Human oral organoid medium contains Advanced Dulbecco’s Modified Eagle’s Medium/F12 supplemented with penicillin/streptomycin, 10 mM HEPES, 2 mM GlutaMAX, 1×B27 supplement (Life Technologies), 1.25 mM N -acetyl-l-cysteine (Sigma-Aldrich), 10 mM Nicotinamide (Sigma-Aldrich), 50 ng/mL human EGF (PeproTech), 500 nM A83- 01(Tocris Bioscience), 10 ng/mL human FGF10
(PeproTech), 5 ng/mL human FGF2 (PeproTech), 1 μM Prostaglandin E2 (Tocris Bioscience), 3 μM CHIR 99021 (Sigma -Aldrich), 1μM Foskolin, 100 μg/mL […]
as §4
GlutaMAX,1×B27 supplement (Life Technologies), 50 ng/mL human EGF
(PeproTech), 200 ng/mL human FGF10 (PeproTech), 1.25 mM N-acetyl-l-cysteine (Sigma-Aldrich), 10 nM Gastin-l, 500 nM A83- 01 (Tocris Bioscience), 10 μM […]
Prostaglandin E2 (Tocris Bioscience), 100 ng/mL human recombinant IGF-1 (Bio Legend), 3 μM CHIR 99021 (Sigma-Aldrich), 10 mM Nicotinamide (Sigma-Aldrich).
For the organoid toxicity assay, organoids were digested into single cells. After centrifugation and washing, single cells were plated in 70 % BME and then added to 96-well plates (5 μ L/well). After that, 100 μ L organoid medium was added into the […]

normal oral organoids = type: cell-based, human; settings: 1 day
From the text: as §1, §2, §3, §5, §6

[3] = system: oral microbiota and gingival, palatal and gastric tissues; type: in vivo, Kuming mice; settings: for H&E staining of gingival, palatal and gastric tissues / oral microbiota diversity / ecological balance (PCoA, Chao, Shannon) / abundance of top three phyla (Bacteroidetes, Firmicutes, Proteobacteria): 0.2%, 100 μL, once per day for 7 days; for oral microbiota diversity / ecological balance (PCoA, Chao, Shannon) / abundance of top three phyla (Bacteroidetes, Firmicutes, Proteobacteria): n = 8; for abundance of top three phyla (Bacteroidetes, Firmicutes, Proteobacteria): saliva on 8th day; for tooth staining: data not shown
From the text: Toxicity tests on mice. Furthermore, 35- 40 g fe male Kuming mice were also purchased from Slac & Jingda Corporation of laboratory animals, Changsha, China to systematically evaluate the toxicity of pHly -1 NPs to oral microflora and soft tissue in mice. All animals were randomly placed into three treatment groups, and pHly-1 NPs or CHX in aqueous solution was gradually added to mice mouth once a day for seven days. Considering the concentration of CHX used in clinic is usually 0.2 %, we determined that the concentration of the pHly -1 NPs rinsed mouse’s mouth is also 0.2 % and the volume was 100 μ L. At the 8th day, saliva was drawn for oral microbiome analysis, and gingival, palatal and gastric tissues were collected for histopathological […]
Oral flora 16S rRNA sequencing. Total genomic DNA of oral samples was extracted in OE Biotech Company (Shanghai, China) using a QIAamp DNA Stool Mini Kit (Qiagen, Germantown, MD, USA). Bacterial DNA was amplified with primers […]
targeting the V3- V4 regions (50- TACGGRAGGCAGCAG- 30,
50- AGGGTATCTAATCCT-30) and the final amplicon was quantified using a Qubit dsDNA assay kit (Life Technologies, California, United States). Equal amounts of purified amplicons were pooled for subsequent sequencing by the Illumina Nova 6000 platform (Illumina, USA) (Shanghai Oebiotech Co., Ltd., Shanghai, China). The raw data were treated and processed using the QIIME software package (version 1.8.0).
The operational taxonomic units (OTUs) were generated using Vsearch software with a 97% similarity cutoff. The QIIME package and the RDP classifier (confidence threshold was 70%) were performed to select the representative read of each OTU and annotate and BLAST against the Silva database Version 123, respectively.
Furthermore, the microbial diversity in oral samples was estimated by using the alpha diversity that include Chao1 and Shannon index. The bacterial diversity between groups was compared using the Wilcoxon rank sum test.

Row | Molecule | effect on gastric organoid viability (normal gastric organoids; 500 μM) | effect on both organoids [1] | body weights vs control [2] | H&E staining of gingival, palatal and gastric tissues [2] | effect on oral organoid viability (normal oral organoids; 500 μM) | H&E staining of gingival, palatal and gastric tissues [3] | oral microbiota diversity / ecological balance (PCoA, Chao, Shannon) [3] | abundance of top three phyla (Bacteroidetes, Firmicutes, Proteobacteria) [3] | tooth staining [3] | gastric organoids death (normal gastric organoids; 31.25 μM) | concentration inducing organoid death or decreased viability [1] | caries lesions on sulcal and smooth surfaces (Keyes' scoring, Larson's modification) vs control ([2]; topical 100 μM, 300 μL, pH 4.5, once per day, 35 days, n = 8) | oral organoid death (normal oral organoids; 15.6 μM)
1 | KIWFHAMHIIAHFIAHQHLHQHL-NH2 [pHly-1 NPs] | no obvious effect | no apparent effect | No significant difference in body weights | no detectable signals for the harmful effect | no apparent viability decrease | no visible signs of harmful effects | did not disrupt the ecological balance of the microbiota | did not affect their abundance | not observed |  |  |  | 
2 | [H]/N=C(\N/C(=N/[H])NCCCCCCNC(=N)NC(=N)Nc1ccc(Cl)cc1)Nc1ccc(Cl)cc1 [CHX, chlorhexidine] |  |  | No significant difference in body weights | no detectable signals for the harmful effect |  | epithelial cell shedding and structural damage of gastric tissue | reduced the oral microbiota diversity | significantly increased the abundance of Firmicutes species | occasionally present | about 40% | ~ 20 μM | alleviated severe lesions | about 60%
